These are literature values, as cited in patent publication US10702472B2, “Production method of edible sustained-release functional material and edible sustained-release functional material” (AOBAKASEI KABUSHIKI KAISHA, priority 2017, dated 2020).

For the data set the following is noted: generally known value.

The structures appear in SMILES notation.

`O=C[C@H](O)[C@@H](O)[C@H](O)[C@H](O)CO` [glucose]: the collapse temperature is −40 °C.
